Experimental data: US20250324969A1

What was measured:
Anopheles gambiae = details: J. Med. Entomol. 41 (4) (2004); cited from earlier work
[1] = tested on: VKPR mosquito strain (also called VKPER) of Anopheles gambiae; details: VKPR strain with mutation for knockdown resistance to pyrethroids; cited from earlier work
Culex quinquefasciatus = details: J. Med. Entomol. 41 (4) (2004); cited from earlier work
Aedes aegypti = details: J. Med. Entomol. 41 (4) (2004); cited from earlier work
[2] = tested on: ACE (acetylcholinesterase) of resistant mosquitoes; details: 10 microliters insecticide solution (10^-2 M), 15 min at ambient temperature, optical density over 10 min
Procedure: (§1) The differences in the properties of the ACE (acetylcholinesterase) between mosquitoes that have this form of resistance and sensitive mosquitoes can be detected using the following test: • Experimental protocol TESTS No.-1: Sensitive and resistant mosquitoes.
(§2) 1° the mosquito (or larva) is crushed and the crushed material is homogenized in an Eppendorf tube with a buffer solution (20 mM tris, pH 7, containing 1% of Triton X-100). After centrifugation at 10,000 g for 2 minutes, the supernatant (which contains the ACE) is collected and distributed in the wells (A) and (B) of a microplate (100 microliters in each well),
(§3) Johnson in well (B), and 10 microliters of alcohol, in well (A). The microplate is left for 15 min at ambient temperature (which is sufficient to allow the action, if any, of the insecticide),
(§4) 3°determination of the catalytic activity of the ACE (acetylcholinesterase): in each well is added 100 microliters of a solution containing acetylcholine (2.5 mM) and 0.2 mM of DTNB (dinitro-2-benzoic). The intensity of the coloration is assessed by measuring the optical density (the optical density increases based on the coloration) If the enzyme is active, the products of the hydrolysis of the acetylcholine react with the DTNB to produce a substance that features an absorption peak for the radiations of 412 nm. It is therefore possible to follow the reaction by spectrophotometry. […]

[3] = tested on: ACE (acetylcholinesterase) of sensitive mosquitoes; details: 10 microliters insecticide solution (10^-2 M), 15 min at ambient temperature, optical density over 10 min
Procedure: as §1, §2, §3, §4

| SMILES | Effect on mosquitoes (Anopheles gambiae) | Effect on mosquitoes [1] | Effect on mosquitoes (Culex quinquefasciatus) | Effect on mosquitoes (Aedes aegypti) | Effect of the insecticide on ACE catalytic activity (evolution of the optical density, insecticide well (B) vs control well (A)) [2] | Effect of the insecticide on ACE catalytic activity (evolution of the optical density, insecticide well (B) vs control well (A)) [3] |
| --- | --- | --- | --- | --- | --- | --- |
| CN/C(=N/CC1CCOC1)N[N+](=O)[O-] (stereo not drawn) [Dinotefuran] | lethal effect | lethal effect | lethal effect | lethal effect |  |  |
| CNC(=O)Oc1ccccc1OC(C)C [Propoxur] |  |  |  |  | completely resistant | insufficient to prevent the Propoxur insecticide (Baygon) from working |
